Where two headings read alike, the source gives them in different places.
Assays:
MERS nsp1 = MERS nsp1 (Middle East respiratory syndrome-related coronavirus, UniProt K9N7C7); experiment: biochemical; format: binding
SARS-CoV-1 nsp1 = SARS-CoV-1 nsp1 (Severe acute respiratory syndrome coronavirus, UniProt P0C6X7); experiment: biochemical; format: binding
SARS-CoV-2 nsp1_10-126 [1] = target: T1, SARS-CoV-2 nsp1_10-126 (Severe acute respiratory syndrome coronavirus 2, UniProt P0DTD1); experiment: Thermal shift assay (TSA) by nanoDSF; format: binding; conditions: 4 mM fragment; for TSA effect on unfolding of the protein, in words / TSA Ti ± SD: 2.0% DMSO; for TSA ΔTi: Ti (protein-fragment) − Ti (protein-DMSO), control Ti 54.05 °C in 2.0% DMSO; for TSA Ti ± SD: nanoDSF, 1.25 mg/mL protein, n = 3, APUC = atypical protein unfolding curve; for TSA |ΔTi|-3SD: > 0 regarded as statistically significant
Excerpt: For TSA, nsp1 in the presence of an equal concentration of DMSO was used as a control to offset the influence of DMSO on the protein. The averaged change of inflection temperature (△Ti) of the protein in the presence of fragments higher than three-fold of standard deviation (|△Ti|-3*SD > 0) was regarded as statistically significant. […] In this regard, TSA may not be suitable yet for the validation of hits against SARS-CoV-2 nsp1_10-126, as we have recently also observed for another SARS-CoV-2 protein, nsp10 [41]. With respect to physicochemical properties, calculated values for fragments are well within the expected range, indicating good starting points for structure-based drug design.
The protein concentration used in this assay was determined by analysing the unfolding curves of SARS-CoV-2 nsp1_10-126 at different concentrations in the presence of 2% DMSO. Fragments dissolved in DMSO (200 mM stocks) were diluted in buffer E supplied with 0.05% Pluronic® F-127 and mixed with nsp1_10-126. The final concentration of fragments was 4 mM containing 2.0% DMSO, while the final protein concentration was 1.25 mg/mL. After centrifugation for 5 min at 6000 rpm, the samples were loaded into Tycho NT.6 capillaries (TY-C001, NanoTemper, München, Germany) with 1.25 mg/mL SARS-CoV-2 nsp1_10-126 in the presence of 2% DMSO as control and measured by the Tycho NT.6 instrument (NanoTemper, München, Germany) in triplicate. The resulting Ti values are presented as means ± SD (n = 3) and the △Ti values for each sample were calculated with the following equation. △Ti = Ti (protein-fragment) − Ti (protein-DMSO)

SARS-CoV-2 nsp1_10-126 [2] = target: T1, SARS-CoV-2 nsp1_10-126; experiment: Microscale thermophoresis (MST) binding affinity

Sequence of MERS nsp1 (K9N7C7 2-193 limits assumed): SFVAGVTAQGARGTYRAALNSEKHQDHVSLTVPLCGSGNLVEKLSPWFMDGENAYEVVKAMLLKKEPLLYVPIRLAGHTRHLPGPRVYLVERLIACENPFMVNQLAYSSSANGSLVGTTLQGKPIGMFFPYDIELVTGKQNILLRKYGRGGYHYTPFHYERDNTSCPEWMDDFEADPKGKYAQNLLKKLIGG

SMILES	MERS nsp1 MST, Kd (MERS nsp1)	Cross-binding to SARS-CoV-1 nsp1 by MST, in words (SARS-CoV-1 nsp1)	SARS-CoV-1 nsp1 MST, Kd (SARS-CoV-1 nsp1)	TSA effect on unfolding of the protein, in words (SARS-CoV-2 nsp1_10-126 [1])	TSA ΔTi (SARS-CoV-2 nsp1_10-126 [1])	TSA Ti ± SD (SARS-CoV-2 nsp1_10-126 [1])	Kd (SARS-CoV-2 nsp1_10-126 [2])	Kd (SARS-CoV-2 nsp1_10-126 [2]; read-out: SARS-CoV-2 nsp1 MST, Kd)	Kd (SARS-CoV-1 nsp1)	TSA |ΔTi|-3SD (SARS-CoV-2 nsp1_10-126 [1])	Kd (MERS nsp1)	Cross-binding to MERS nsp1 by MST, in words (MERS nsp1)
C[C@H](N)c1ccc(Cl)cc1 [Fragment 7H2]	n.i	no binding	n.i.	Destabilisation effects	−0.50 °C	53.55 ± 0.25 °C	> 20 mM	> 20 mM	–	–	–	–
CNCc1csc(-c2cccc(Cl)c2)n1 [Fragment 11C6]	n.i.	strong cross-binding effects	–	Destabilisation effects	−0.27 °C	53.78 ± 0.05 °C	1.16 ± 0.22 mM	–	0.38 ± 0.14 mM	0.13 °C	–	–
OCCNCc1ccccc1 [Fragment 8E6]	–	–	–	Destabilisation effects	−1.33 °C	52.72 ± 0.22 °C	8.32 ± 3.32 mM	–	> 20 mM	0.67 °C	> 20 mM	–
CNCc1ccc(-c2cccs2)cc1 [Fragment 5E11]	–	–	–	atypical unfolding curves	–	APUC	0.48 ± 0.3 mM	–	12.8 ± 24.1 mM	–	> 20 mM	–
Nc1nc(-c2ccc(O)cc2)cs1 [Fragment 10B6]	–	–	–	Destabilisation effects	−2.79 °C	51.27 ± 0.15 °C	0.56 ± 0.19 mM	–	> 20 mM	2.33 °C	4.92 ± 4.19 mM	moderate binding affinity
